From ChEMBL document CHEMBL1129886, “Novel indole containing thiazolidinedione derivatives as potent euglycemic and hypolipidaemic agents” (1997)

Key:
Format in all cases: functional
[1] = test system: Mus musculus; experiment: Percentage reduction in random blood sugar in mice measured on 0th and 9th day at a dose of 200 mg/kg peroral administration; details: route oral
[2] = test system: Mus musculus; experiment: Percentage reduction in random blood sugar in mice measured on 0th and 6th day at a dose of 200 mg/kg peroral administration; details: route oral
[3] = test system: Mus musculus; experiment: Percentage reduction in triglyceride measured on 0 and 9th day at a dose of 100 mg/kg
[4] = test system: Mus musculus; experiment: Percentage reduction in random blood sugar in mice measured on 0th and 3rd day at a dose of 200 mg/kg peroral administration; details: route oral
[5] = test system: Mus musculus; experiment: Percentage reduction in triglyceride measured on 0 and 9th day at a dose of 200 mg/kg
[6] = test system: Mus musculus; experiment: Percentage reduction in AUC determined Glucose tolerance test in 18 h fasted animals after feeding 3 g/kg of glucose at a dose of 200 mg/kg peroral administration; details: route oral

| SMILES | Reduction in RBS [1] [%] | Reduction in RBS [2] [%] | Reduction in TG [3] [%] | Reduction in RBS [4] [%] | Reduction in TG [5] [%] | Reduction in AUC [6] [%] |
| --- | --- | --- | --- | --- | --- | --- |
| NC(Cc1cn(CCOc2ccc(/C=C3\SC(=O)NC3=O)cc2)c2ccccc12)C(=O)O (stereo not given) | 0 | 29 | 64 | 0 | – | – |
| O=C1NC(=O)/C(=C/c2ccc(OCCn3c4ccccc4c4ccccc43)cc2)S1 | 0 | 0 | 44 | 0 | – | – |
| O=C1NC(=O)C(Cc2ccc(OCCn3c4ccccc4c4ccccc43)cc2)S1 (stereo not given) | 0 | 0 | 21 | 0 | – | – |
| O=C1NC(=O)/C(=C/c2ccc(OCCn3ccc4ccccc43)cc2)S1 | 33 | 40 | – | 27 | 37 | 15 |
| O=C1NC(=O)C(Cc2ccc(OCCn3ccc4ccccc43)cc2)S1 (stereo not given) | 74 | 48 | – | 64 | 77 | 55 |
| O=C1NC(=O)/C(=C/c2ccc(OCCn3c(C(=O)O)cc4ccccc43)cc2)S1 | 12 | 39 | – | 50 | 0 | – |
| O=C1NC(=O)/C(=C/c2ccc(OCCn3cnc4ccccc43)cc2)S1 | 33 | 31 | – | 22 | 76 | – |
| Cc1c(C)c2c(c(C)c1O)CCC(C)(COc1ccc(CC3SC(=O)NC3=O)cc1)O2 (stereo not given) [TROGLITAZONE] | 24 | 16 | – | 14 | 50 | 20 |
